Consider 16 molecules from PubChem BioAssay (NCI).

Each structure is given as a SMILES string.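 Following 48 hours of exposure in 96-well plates, responses at five concentrations were used to interpolate endpoints linearly. TGI: total growth inhibition.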

Among the test systems are ACHN renal; EKVX NSCLC; HCC-2998 colon; HOP-92 NSCLC; K-562 leukemia; MOLT-4 leukemia; NCI-H23 lung; NCI-H522 lung; OVCAR-5 ovarian; SF-539 CNS; SK-OV-3 ovarian; U251 CNS; UACC-257 melanoma; UO-31 renal.
Test in all cases: NCI tumour cell line growth inhibition, 48 h

Take `Cc1ccc(NC(=O)CCc2nnc3s/c(=C\c4cccc([N+](=O)[O-])c4)c(=O)n23)cc1`: the TGI in the assay on ACHN renal, in the assay with EKVX NSCLC, in the assay with HCC-2998 colon, in the assay with HOP-92 NSCLC, with K-562 leukemia and with MOLT-4 leukemia was greater than 100 µM in each case. For the same molecule, the TGI in the assay with NCI-H23 lung, with NCI-H522 lung, in the assay on OVCAR-5 ovarian, in the assay on SF-539 CNS, in the assay on SK-OV-3 ovarian and with U251 CNS was greater than 100 µM in each case. Besides, the TGI with UACC-257 melanoma and with UO-31 renal was greater than 100 µM throughout.

Take `Cc1ccc(C(=O)C(c2nc3n(c2O)C(=N)N=N3)c2nc3n(c2O)C(=N)N=N3)cc1` (stereo not given): the TGI in the assay on ACHN renal, in the assay with EKVX NSCLC, in the assay with HCC-2998 colon, with HOP-92 NSCLC, in the assay on K-562 leukemia and in the assay on MOLT-4 leukemia was greater than 100 µM throughout. Moreover, the TGI in the assay with NCI-H23 lung, in the assay with NCI-H522 lung, in the assay on OVCAR-5 ovarian, in the assay on SF-539 CNS, in the assay on SK-OV-3 ovarian and with UACC-257 melanoma was greater than 100 µM in each case. In the assay on UO-31 renal, this molecule yielded a TGI greater than 100 µM.

On to `CC(=O)NNc1nc(C)c(C(/C=C/c2ccc(Cl)cc2)=N\N=C(N)N)s1`, for which the TGI in the assay on ACHN renal, in the assay with HCC-2998 colon, in the assay with HOP-92 NSCLC, in the assay on K-562 leukemia, with MOLT-4 leukemia and with NCI-H23 lung was greater than 100 µM throughout. Also, the TGI with NCI-H522 lung, in the assay on OVCAR-5 ovarian, in the assay with SF-539 CNS, with SK-OV-3 ovarian, in the assay with U251 CNS and in the assay on UACC-257 melanoma was greater than 100 µM in each case. Moreover, the TGI in the assay on UO-31 renal was greater than 100 µM.

For `CN1C(=S)CSc2ccccc21`, the TGI with ACHN renal, in the assay on EKVX NSCLC, in the assay with HOP-92 NSCLC, in the assay with K-562 leukemia, in the assay with MOLT-4 leukemia and in the assay with NCI-H23 lung was greater than 100 µM each time. The TGI in the assay with NCI-H522 lung, with OVCAR-5 ovarian, with SF-539 CNS, with SK-OV-3 ovarian, in the assay on U251 CNS and in the assay with UACC-257 melanoma was greater than 100 µM each time. The TGI in the assay with UO-31 renal was greater than 100 µM.

Consider `CSCCC(NC(=O)Cc1ccc(C(=O)c2ccccc2)cc1)C(=O)N1CCN(CCCCN2c3ccccc3Sc3cc(N=[N+]=[N-])ccc32)CC1` (stereo not given), for which the TGI in the assay with ACHN renal, in the assay on EKVX NSCLC, in the assay on HCC-2998 colon, with HOP-92 NSCLC, in the assay on K-562 leukemia and with MOLT-4 leukemia was greater than 100 µM each time. Besides, the TGI with NCI-H23 lung, in the assay with NCI-H522 lung, with OVCAR-5 ovarian, in the assay on SK-OV-3 ovarian, in the assay with U251 CNS and in the assay on UACC-257 melanoma was greater than 100 µM in each case. The molecule also displayed a TGI in the assay on UO-31 renal greater than 100 µM.

Turning to `Cc1cc(N(CCC#N)CCC#N)ccc1/C=C1N=C(/C=C/c2ccccc2)N(c2ccc(S(N)(=O)=O)cc2)C\1=O`, the TGI in the assay with ACHN renal, with HOP-92 NSCLC, in the assay with K-562 leukemia, with MOLT-4 leukemia, in the assay on NCI-H23 lung and with NCI-H522 lung was greater than 100 µM in each case. Moreover, the TGI with OVCAR-5 ovarian, with SF-539 CNS, in the assay on SK-OV-3 ovarian, in the assay on U251 CNS, in the assay with UACC-257 melanoma and with UO-31 renal was greater than 100 µM throughout.

`COc1cccc(N2C(=O)/C(=C/c3ccc(N(CCC#N)CCC#N)cc3)N=C2c2cc([N+](=O)[O-])ccc2Cl)c1`: the TGI in the assay on ACHN renal was greater than 100 µM; with HCC-2998 colon, greater than 100 µM; in the assay on K-562 leukemia, greater than 100 µM; in the assay on MOLT-4 leukemia, 68.2 µM; in the assay on NCI-H23 lung, greater than 100 µM; in the assay on NCI-H522 lung, greater than 100 µM. Besides, the TGI in the assay on OVCAR-5 ovarian, with SF-539 CNS, in the assay with SK-OV-3 ovarian, with U251 CNS, in the assay with UACC-257 melanoma and with UO-31 renal was greater than 100 µM each time.

Regarding `N#CCCN(C1=NN(C(=O)CC(=O)Nc2ccc(Cl)cc2)C(c2ccccc2)C1)c1ccc(Cl)cc1` (stereo not given), the TGI in the assay on ACHN renal, with EKVX NSCLC, with HCC-2998 colon, in the assay on HOP-92 NSCLC, in the assay on K-562 leukemia and with MOLT-4 leukemia was greater than 100 µM in each case. The TGI in the assay on NCI-H23 lung, with NCI-H522 lung, in the assay with OVCAR-5 ovarian, with SF-539 CNS, in the assay on U251 CNS and in the assay with UACC-257 melanoma was greater than 100 µM throughout. In the assay on UO-31 renal, this molecule gave a TGI greater than 100 µM.

For `Cc1cc(Cl)ccc1NC(=O)CC1SC(=NC(=O)c2ccccc2Cl)NC1=O` (stereo not given), the TGI was 30.8 µM with ACHN renal; greater than 100 µM in the assay on EKVX NSCLC; greater than 100 µM with HCC-2998 colon; 35.9 µM in the assay on HOP-92 NSCLC; 47.6 µM in the assay on K-562 leukemia; 6.65 µM with MOLT-4 leukemia. Moreover, the TGI is greater than 100 µM in the assay with NCI-H23 lung; 29 µM in the assay on NCI-H522 lung; 84 µM in the assay with OVCAR-5 ovarian; 35.4 µM in the assay on SF-539 CNS; 30.1 µM with U251 CNS; 38.6 µM in the assay with UACC-257 melanoma. The same molecule showed a TGI with UO-31 renal of 44.6 µM.

Consider `O=C1N=CN=C2C=CC(Cl)=C(I)C12` (stereo not given), for which the TGI in the assay on ACHN renal, in the assay with EKVX NSCLC, in the assay on HCC-2998 colon, in the assay with K-562 leukemia, with MOLT-4 leukemia and in the assay on NCI-H23 lung was greater than 100 µM in each case. Moreover, the TGI in the assay on OVCAR-5 ovarian is greater than 100 µM; in the assay with SK-OV-3 ovarian, greater than 100 µM; with U251 CNS, greater than 100 µM; in the assay on UACC-257 melanoma, greater than 100 µM; in the assay on UO-31 renal, 65.7 µM.

For `CO[C@H](C(=O)O[C@H]1C(=O)N2CC[C@@H]3CCC[C@H]1C32C)c1ccccc1` (stereo not given in full), the TGI with ACHN renal, in the assay on EKVX NSCLC, in the assay with HCC-2998 colon, with K-562 leukemia, in the assay with MOLT-4 leukemia and with NCI-H23 lung was greater than 100 µM throughout. Moreover, the TGI in the assay with NCI-H522 lung, with OVCAR-5 ovarian, in the assay on SF-539 CNS, in the assay on SK-OV-3 ovarian, with U251 CNS and with UACC-257 melanoma was greater than 100 µM in each case. For the same molecule, the TGI in the assay on UO-31 renal is greater than 100 µM.

Turning to `O=C1C[C@@H]2[C@@H](CCC23CCCC3)N1`, the TGI with ACHN renal, in the assay on EKVX NSCLC, in the assay with HCC-2998 colon, with K-562 leukemia, in the assay on MOLT-4 leukemia and in the assay with NCI-H23 lung was greater than 100 µM in each case. In addition, the TGI in the assay with NCI-H522 lung, with OVCAR-5 ovarian, in the assay with SF-539 CNS, with SK-OV-3 ovarian, in the assay on U251 CNS and in the assay on UACC-257 melanoma was greater than 100 µM each time. Besides, the TGI with UO-31 renal was greater than 100 µM.

For the molecule `O=C(CSc1nnc(Cc2ccccc2)o1)Nc1ccc(Cl)cc1[N+](=O)[O-]`, the TGI was 25.2 µM in the assay with ACHN renal; 40.1 µM with EKVX NSCLC; 98.7 µM with K-562 leukemia; greater than 100 µM in the assay on MOLT-4 leukemia; 36 µM with NCI-H23 lung; 9.26 µM in the assay with NCI-H522 lung. Moreover, the TGI with SK-OV-3 ovarian was greater than 100 µM; in the assay with U251 CNS it was 34.8 µM; in the assay on UACC-257 melanoma, 36.3 µM; in the assay with UO-31 renal, 49.4 µM.

Turning to `CCCC(=O)N(C)N=Nc1ccc(C(=O)OCC)cc1`, the TGI in the assay on ACHN renal, with EKVX NSCLC, in the assay on HCC-2998 colon, with HOP-92 NSCLC, with K-562 leukemia and in the assay with MOLT-4 leukemia was greater than 100 µM in each case. Also, the TGI in the assay on NCI-H23 lung, in the assay with NCI-H522 lung, in the assay on OVCAR-5 ovarian, in the assay with SF-539 CNS, with U251 CNS and in the assay with UACC-257 melanoma was greater than 100 µM throughout. The TGI in the assay on UO-31 renal was greater than 100 µM.

For the molecule `COC(=O)C1CC(c2ccc(Cl)cc2)=NO1` (stereo not given), the TGI with ACHN renal, with EKVX NSCLC, with HCC-2998 colon, in the assay on HOP-92 NSCLC, with K-562 leukemia and in the assay on MOLT-4 leukemia was greater than 100 µM each time. Moreover, the TGI in the assay on NCI-H23 lung, in the assay on NCI-H522 lung, in the assay on OVCAR-5 ovarian, with SF-539 CNS, with SK-OV-3 ovarian and with U251 CNS was greater than 100 µM in each case. For the same molecule, the TGI in the assay on UACC-257 melanoma and in the assay on UO-31 renal was greater than 100 µM throughout.

As for `Cc1ccc(C(=O)O)c(/C=C2\Cc3cc(C)cc(C)c3C2=O)c1`, the TGI with ACHN renal, in the assay on EKVX NSCLC, in the assay with HCC-2998 colon, in the assay on K-562 leukemia, with MOLT-4 leukemia and in the assay with NCI-H522 lung was greater than 100 µM each time. Also, the TGI in the assay on SF-539 CNS, with U251 CNS, in the assay on UACC-257 melanoma and in the assay on UO-31 renal was greater than 100 µM each time.
